{"source": "patent US20100286155A1", "about": "“ADRENOCORTICAL CARCINOMA TREATMENT” (OSI PHARMACEUTICALS, INC., priority 2009, published 2010)", "key": {"[1]": {"system": "H295R ACC tumor cell line", "assay": "H295R ACC tumor cell line OSI-906 sensitivity: proliferation (Cell Titer Glo) and apoptosis (Caspase Glo)", "format": "cell-based, human", "conditions": "varying concentrations; proliferation at 72 h, apoptosis at 48 h after dosing"}, "IGF-1R": {"molecular_target": "T1, IGF-1R (Homo sapiens, UniProt P08069)", "T1 construct": "endogenous in cells; host or cells: H295R ACC tumor cell line", "T1 sequence (P08069 31-1367)": "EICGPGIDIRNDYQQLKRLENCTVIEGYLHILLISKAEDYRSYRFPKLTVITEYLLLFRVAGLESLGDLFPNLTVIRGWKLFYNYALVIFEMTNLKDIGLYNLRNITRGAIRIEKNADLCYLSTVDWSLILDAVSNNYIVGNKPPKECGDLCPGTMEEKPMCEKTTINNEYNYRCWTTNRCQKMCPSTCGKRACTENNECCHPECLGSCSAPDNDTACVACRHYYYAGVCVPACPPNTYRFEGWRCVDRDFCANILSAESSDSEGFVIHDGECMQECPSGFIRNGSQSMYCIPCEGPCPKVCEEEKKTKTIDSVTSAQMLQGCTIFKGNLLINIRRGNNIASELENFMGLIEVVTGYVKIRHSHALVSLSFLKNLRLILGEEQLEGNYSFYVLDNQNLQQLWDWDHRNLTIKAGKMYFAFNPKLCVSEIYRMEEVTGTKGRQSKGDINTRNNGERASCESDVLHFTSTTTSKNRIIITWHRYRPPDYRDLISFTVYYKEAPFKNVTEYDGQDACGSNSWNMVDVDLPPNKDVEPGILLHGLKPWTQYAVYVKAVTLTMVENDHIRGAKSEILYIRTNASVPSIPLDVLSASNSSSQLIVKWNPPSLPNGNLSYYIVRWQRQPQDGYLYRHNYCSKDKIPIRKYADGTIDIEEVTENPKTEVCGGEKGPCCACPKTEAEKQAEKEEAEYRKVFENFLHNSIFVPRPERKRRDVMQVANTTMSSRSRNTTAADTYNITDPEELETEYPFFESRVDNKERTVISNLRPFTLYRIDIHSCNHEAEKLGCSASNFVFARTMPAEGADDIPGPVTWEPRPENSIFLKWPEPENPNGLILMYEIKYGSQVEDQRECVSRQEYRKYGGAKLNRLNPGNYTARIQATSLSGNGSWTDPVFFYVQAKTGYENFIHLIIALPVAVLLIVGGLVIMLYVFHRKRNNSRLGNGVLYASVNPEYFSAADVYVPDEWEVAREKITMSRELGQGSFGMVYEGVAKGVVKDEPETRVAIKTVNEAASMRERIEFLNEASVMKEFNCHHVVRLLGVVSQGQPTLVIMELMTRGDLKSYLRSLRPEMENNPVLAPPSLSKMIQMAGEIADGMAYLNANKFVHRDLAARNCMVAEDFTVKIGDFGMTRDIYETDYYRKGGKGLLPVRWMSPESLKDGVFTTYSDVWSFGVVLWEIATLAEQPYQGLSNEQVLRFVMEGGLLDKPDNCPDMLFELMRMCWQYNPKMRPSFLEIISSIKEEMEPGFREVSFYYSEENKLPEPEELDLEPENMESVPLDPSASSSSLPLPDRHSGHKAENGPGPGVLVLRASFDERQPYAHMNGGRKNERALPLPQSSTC", "assay": "pIGF-1R inhibition in H295R tumor cells, RTK capture array", "format": "cell-based", "conditions": "3 uM, 24 hours", "description": "(§1) Measurement of pIGF-1R and pIR was determined by RTK capture array (ARY001, R&D Systems), and measurement of pAkt was determined by WB."}, "pAkt": {"system": "pAkt", "assay": "pAkt inhibition in H295R tumor cells, WB", "format": "cell-based, human", "conditions": "3 uM, 24 hours", "description": "as §1"}, "[2]": {"system": "adrenocortical carcinoma (ACC)", "assay": "Phase I clinical trials of OSI-906 in ACC patients (RECIST, CT, FDG-PET)", "format": "in vivo, human", "description": "As of 14 Apr. 2009 in two phase I clinical trials, seven patients have been enrolled with ACC.\nPatient 1 is a ACC patient, previously treated with six cycles of etoposide, cisplatin, and doxorubicin and mitotane from Feb. 2008 to Jul. 2008. […] 1, 2008, 450 mg/day, escalating to 600 mg, on days 1-3 of each 14 day period. At 8 weeks of treatment, CT scan was reported as stable. […] The overall reduction in RECIST measurement of target lesions was 43%. Subsequent scans indicated incremental response, including a scan showing a partial response of 72% decrease by RECIST compared to baseline. […] ACC is typically thought to be an FDG-avid tumor.\nObjective Response Criteria (RECIST)\nComplete Response: Disappearance of all clinical and radiological evidence of tumor (both target and nontarget) including normalization of elevated tumor markers at baseline, if documented. The patient must be free of all tumor-related symptoms. Complete Response must be confirmed at a second tumor assessment not less than 28 days apart from the assessment at which CR was observed.\nPartial Response: At least a 30% decrease in the sum of Longest Diameter (LD) of target lesions taking as reference the baseline sum LD. Partial Response must be confirmed at a second tumor assessment not less than 28 days apart from the assessment at which PR was observed.\nStable Disease: Steady state of disease. Neither sufficient shrinkage to qualify for PR nor sufficient increase to qualify for progressive disease. Stable disease must be documented to be present at least 28 days from the start of the therapy. There may be no appearance of new lesions for this category.\nProgressive Disease: At least a 20% increase in the sum of LD of measured lesions taking as references the smallest sum LD recorded since the treatment started. Appearance of new lesions will also constitute progressive disease. In exceptional circumstances, unequivocal progression of nontarget lesions may be accepted as evidence of disease progression (DP).\nAll patients who have measurable disease according to RECIST, who received at least 2 treatment periods of therapy, and who have their disease re-evaluated will be evaluable for response. All sites of disease should be followed as either target or nontarget lesions, as categorized at baseline. All measurable lesions up to a maximum of 5 lesions per organ or 10 lesions in total, representative of all involved organs, should be identified as target lesions, while all other lesions (either additional measurable lesions or nonmeasurable lesions) should be classified as nontarget lesions. To ensure comparability, the baseline radiology/scans and subsequent radiology/scans to assess response should be performed using identical techniques (i.e., scans performed immediately following bolus contrast administration should be made with a standard volume of contrast, the identical contrast agent, and preferably the same scanner). The same method, radiological or physical, should be employed and assessed by the same individual on each occasion."}, "[3]": {"conditions": "Patient 1, 450 mg/day escalating to 600 mg, days 1-3 of each 14 day period"}, "[4]": {"conditions": "seven ACC patients enrolled in two phase I trials, as of 14 Apr. 2009"}}, "data": [{"compound": "C[C@]1(O)C[C@@H](c2nc(-c3ccc4ccc(-c5ccccc5)nc4c3)c3c(N)nccn32)C1", "note": "[OSI-906, cis-3-[8-amino-1-(2-phenyl-quinolin-7-yl)-imidazo[1,5-a]pyrazin-3-yl]-1-methyl-cyclobutanol]", "values": [{"measurement": "sensitivity of H295R ACC tumor cell line (proliferation and apoptosis)", "setting": "[1]", "value": "exhibits sensitivity to OSI-906"}, {"measurement": "inhibition of phosphorylation of IGF-1R (pIGF-1R)", "setting": "IGF-1R", "value": "inhibits phosphorylation of both receptors"}, {"measurement": "inhibition of pAkt", "setting": "pAkt", "value": "inhibition of pAkt"}, {"measurement": "CT scan result at 8 weeks of treatment", "setting": "[2]; [3]", "value": "stable"}, {"measurement": "CT scan result at 16 weeks", "setting": "[2]; [3]", "value": "decrease in primary lesion as well as improvement in all pulmonary lesions"}, {"measurement": "18-FDG-PET scan tumor uptake of tracer", "setting": "[2]; Patient 1, 30 weeks into treatment, residual primary tumor and two remaining metastases", "value": "no tumor uptake of the tracer"}, {"measurement": "overall reduction in RECIST measurement of target lesions", "setting": "[2]; Patient 1, at 16 weeks", "value": 43, "unit": "%"}, {"measurement": "partial response, decrease by RECIST compared to baseline", "setting": "[2]; Patient 1, subsequent scan", "value": 72, "unit": "%"}, {"measurement": "drug-related toxicities", "setting": "[2]; Patient 1, up to 56 weeks", "value": "No drug-related toxicities have been observed"}, {"measurement": "patients with partial response", "setting": "[2]; [4]", "value": "One had partial response"}, {"measurement": "patients with stable disease", "setting": "[2]; [4]", "value": "two had stable disease for >6 months"}, {"measurement": "patients with symptomatic response", "setting": "[2]; [4]", "value": "one had a dramatic, short-lived sympitomatic response"}]}]}
